Measurements reported in US8026359B2, “Fungicidal heterocyclic amines” (E.I. du Pont de Nemours and Company, priority 2007, dated 2011).

What was measured:
Type in all cases: in vivo
Botrytis cinerea = assay: Test F: tomato Botrytis, preventive spray on tomato seedlings; conditions: 200 ppm, 100 = 100% disease control, 0 = no control relative to controls; for pest or weed control at 200 ppm: Botrytis cinerea, 120 h, read-out: Test F disease control rating
From the text: (§1) General protocol for preparing test suspensions for Tests A-R: The test compounds were first dissolved in acetone in an amount equal to 3% of the final volume and then suspended at the desired concentration (in ppm) in acetone and purified water (50/50 mix) containing 250 ppm of the surfactant Trem® 014 (polyhydric alcohol esters). The resulting test suspensions were then used in tests A-R. In Tests A-M, compounds were sprayed as a 200 ppm test suspension (equivalent to a rate of 500 g/ha) or as a 40 ppm test suspension to the point of runoff on the test plants. In Tests N-R, compounds were sprayed as a 100 g/ha test suspension (equivalent to a rate of 100 ppm) on the test plants at an application volume of 1000 L/ha. The test suspension was sprayed to the point of run-off on tomato seedlings.

Fusarium graminearum = assay: whole plant or invertebrate; conditions: for Test E disease control rating: 200 ppm, 100 = 100% disease control, 0 = no control relative to controls; for pest or weed control at 200 ppm: Fusarium graminearum, in Triticum aestivum, 192 h, read-out: Test E disease control rating
[1] = system: Colletotrichum orbiculare; assay: Test I: cucumber Colletotrichum anthracnose, preventive spray on cucumber seedlings; conditions: 100 = 100% disease control, 0 = no control relative to controls; for Test I disease control rating: 200 ppm; for pest or weed control at 200 ppm: Colletotrichum orbiculare, 144 h, read-out: Test I disease control rating
From the text: as §1, with “cucumber” for “tomato”

[2] = system: Erysiphe graminis f. sp. tritici; assay: Test A: wheat powdery mildew, preventive spray on wheat seedlings; conditions: 200 ppm, 100 = 100% disease control, 0 = no control relative to controls; for pest or weed control at 200 ppm: Blumeria graminis, 192 h, read-out: Test A disease control rating
From the text: as §1, with “wheat” for “tomato”

Septoria tritici = assay: Test D: wheat leaf blotch, preventive spray on wheat seedlings; conditions: 200 ppm, 100 = 100% disease control, 0 = no control relative to controls; for pest or weed control at 200 ppm: Zymoseptoria tritici, 504 h, read-out: Test D disease control rating
From the text: as §1, with “wheat” for “tomato”

Septoria nodorum = assay: Test C: wheat glume blotch, preventive spray on wheat seedlings; conditions: 200 ppm, 100 = 100% disease control, 0 = no control relative to controls; for pest or weed control at 200 ppm: Parastagonospora nodorum, 216 h, read-out: Test C disease control rating
From the text: as §1, with “wheat” for “tomato”

[3] = system: Puccinia recondita f. sp. tritici; assay: Test B: wheat leaf rust, preventive spray on wheat seedlings; conditions: 200 ppm, 100 = 100% disease control, 0 = no control relative to controls; for pest or weed control at 200 ppm: Puccinia recondita, 192 h, read-out: Test B disease control rating
From the text: as §1, with “wheat” for “tomato”

Clc1cccc(Nc2cc(-c3ccnc(N[C@H]4CCOC4)n3)ccn2)c1 [Compound 72]
Test F disease control rating (Botrytis cinerea): 0%
Test E disease control rating (Fusarium graminearum): 0%
Test I disease control rating [1]: 0%
Test A disease control rating [2]: 0%
Test D disease control rating (Septoria tritici): 11%
Test C disease control rating (Septoria nodorum): 95%
Test B disease control rating [3]: 80%

Fc1cccc(Nc2cc(-c3ccnc(NC4CCOC4)n3)ccn2)c1 (stereo not shown) [Compound 74]
Test F disease control rating (Botrytis cinerea): 48%
Test E disease control rating (Fusarium graminearum): 0%
Test I disease control rating [1]: 17%
Test A disease control rating [2]: 0%
Test D disease control rating (Septoria tritici): 72%
Test C disease control rating (Septoria nodorum): 99%
Test B disease control rating [3]: 94%

Fc1cccc(Nc2cc(-c3ccnc(NC4CCCOC4)n3)ccn2)c1 (stereo not shown) [Compound 75]
Test F disease control rating (Botrytis cinerea): 90%
Test E disease control rating (Fusarium graminearum): 0%
Test I disease control rating [1]: 9%
Test A disease control rating [2]: 0%
Test D disease control rating (Septoria tritici): 28%
Test C disease control rating (Septoria nodorum): 89%
Test B disease control rating [3]: 83%

COCC(C)Nc1nccc(-c2ccnc(Nc3c(C)cccc3Cl)c2)n1 (stereo not shown) [Compound 76, 4-[2-[(2-chloro-6-methylphenyl)amino]-4-pyridinyl]-N-(2-methoxy-1-methylethyl)-2-pyrimidinamine]
pest or weed control at 200 ppm (Botrytis cinerea): 97%
pest or weed control at 200 ppm (Fusarium graminearum): 93%
pest or weed control at 200 ppm [1]: 72%
pest or weed control at 200 ppm [2]: 36%
pest or weed control at 200 ppm (Septoria tritici): 87%
pest or weed control at 200 ppm (Septoria nodorum): 99%
pest or weed control at 200 ppm [3]: 99%

COCC(C)Nc1nccc(-c2ccnc(Nc3c(C)cccc3C)c2)n1 (stereo not shown) [Compound 77]
Test F disease control rating (Botrytis cinerea): 88%
Test E disease control rating (Fusarium graminearum): 92%
Test I disease control rating [1]: 96%
Test A disease control rating [2]: 95%
Test D disease control rating (Septoria tritici): 61%
Test C disease control rating (Septoria nodorum): 99%
Test B disease control rating [3]: 99%

COCC(C)Nc1nccc(-c2ccnc(Nc3c(Cl)cccc3Cl)c2)n1 (stereo not shown) [Compound 78]
Test F disease control rating (Botrytis cinerea): 93%
Test E disease control rating (Fusarium graminearum): 0%
Test I disease control rating [1]: 98%
Test A disease control rating [2]: 39%
Test D disease control rating (Septoria tritici): 60%
Test C disease control rating (Septoria nodorum): 99%
Test B disease control rating [3]: 99%

COCC(C)Nc1nccc(-c2ccnc(Nc3c(F)cccc3Cl)c2)n1 (stereo not shown) [Compound 79]
Test F disease control rating (Botrytis cinerea): 94%
Test E disease control rating (Fusarium graminearum): 0%
Test I disease control rating [1]: 96%
Test A disease control rating [2]: 0%
Test D disease control rating (Septoria tritici): 5%
Test C disease control rating (Septoria nodorum): 99%
Test B disease control rating [3]: 99%

Cc1cccc(Cl)c1Nc1cc(-c2ccnc(NC3CCOCC3)n2)ccn1 [Compound 80, 4-[2-[(2-chloro-6-methylphenyl)amino]-4-pyridinyl]-N-(tetrahydro-2H-pyran-4-yl)-2-pyrimidinamine]
pest or weed control at 200 ppm (Botrytis cinerea): 99%
pest or weed control at 200 ppm (Fusarium graminearum): 98%
pest or weed control at 200 ppm [1]: 98%
pest or weed control at 200 ppm [2]: 86%
pest or weed control at 200 ppm (Septoria tritici): 93%
pest or weed control at 200 ppm (Septoria nodorum): 99%
pest or weed control at 200 ppm [3]: 100%

Fc1cccc(Nc2cc(-c3ccnc(NCC4CCOC4)n3)ccn2)c1 (stereo not shown) [Compound 82, 4-[2-[(3-fluorophenyl)amino]-4-pyridinyl]-N-[(tetrahydro-3-furanyl)methyl]-2-pyrimidinamine]
pest or weed control at 200 ppm (Botrytis cinerea): 0%
pest or weed control at 200 ppm (Fusarium graminearum): 0%
pest or weed control at 200 ppm [1]: 29%
pest or weed control at 200 ppm [2]: 0%
pest or weed control at 200 ppm (Septoria tritici): 68%
pest or weed control at 200 ppm (Septoria nodorum): 91%
pest or weed control at 200 ppm [3]: 98%

Fc1cccc(Nc2cc(-c3ccnc(NCC4CCCO4)n3)ccn2)c1 (stereo not shown) [Compound 83, 4-[2-[(3-fluorophenyl)amino]-4-pyridinyl]-N-[(tetrahydro-2-furanyl)methyl]-2-pyrimidinamine]
pest or weed control at 200 ppm (Botrytis cinerea): 53%
pest or weed control at 200 ppm (Fusarium graminearum): 0%
pest or weed control at 200 ppm [1]: 0%
pest or weed control at 200 ppm [2]: 0%
pest or weed control at 200 ppm (Septoria tritici): 92%
pest or weed control at 200 ppm (Septoria nodorum): 99%
pest or weed control at 200 ppm [3]: 95%

COCCC(C)Nc1nccc(-c2ccnc(Nc3cccc(F)c3)c2)n1 (stereo not shown) [Compound 84, 4-[2-[(3-fluorophenyl)amino]-4-pyridinyl]-N-(3-methoxy-1-methylpropyl)-2-pyrimidinamine]
pest or weed control at 200 ppm (Botrytis cinerea): 99%
pest or weed control at 200 ppm (Fusarium graminearum): 0%
pest or weed control at 200 ppm [1]: 0%
pest or weed control at 200 ppm [2]: 28%
pest or weed control at 200 ppm (Septoria tritici): 59%
pest or weed control at 200 ppm (Septoria nodorum): 99%
pest or weed control at 200 ppm [3]: 91%

COCC(C)Nc1nccc(-c2ccnc(Nc3c(C)cccc3OC)c2)n1 (stereo not shown) [Compound 85]
Test F disease control rating (Botrytis cinerea): 93%
Test E disease control rating (Fusarium graminearum): 0%
Test I disease control rating [1]: 96%
Test A disease control rating [2]: 56%
Test D disease control rating (Septoria tritici): 0%
Test C disease control rating (Septoria nodorum): 99%
Test B disease control rating [3]: 94%

COCC(C)Nc1nccc(-c2ccnc(Nc3c(C)ccc4ccccc34)c2)n1 (stereo not shown) [Compound 86]
Test F disease control rating (Botrytis cinerea): 96%
Test E disease control rating (Fusarium graminearum): 0%
Test I disease control rating [1]: 0%
Test A disease control rating [2]: 27%
Test D disease control rating (Septoria tritici): 0%
Test C disease control rating (Septoria nodorum): 94%
Test B disease control rating [3]: 55%

COCC(C)Nc1nccc(-c2ccnc(Nc3c(C)cc(C)cc3Cl)c2)n1 (stereo not shown) [Compound 87]
Test F disease control rating (Botrytis cinerea): 96%
Test E disease control rating (Fusarium graminearum): 0%
Test I disease control rating [1]: 88%
Test A disease control rating [2]: 87%
Test D disease control rating (Septoria tritici): 49%
Test C disease control rating (Septoria nodorum): 100%
Test B disease control rating [3]: 95%

COc1cccc(C)c1Nc1cc(-c2ccnc(NC3CCOCC3)n2)ccn1 [Compound 88]
Test F disease control rating (Botrytis cinerea): 0%
Test E disease control rating (Fusarium graminearum): 91%
Test I disease control rating [1]: 0%
Test A disease control rating [2]: 99%
Test D disease control rating (Septoria tritici): 0%
Test C disease control rating (Septoria nodorum): 97%
Test B disease control rating [3]: 100%

Cc1ccc2ccccc2c1Nc1cc(-c2ccnc(NC3CCOCC3)n2)ccn1 [Compound 89]
Test F disease control rating (Botrytis cinerea): 99%
Test E disease control rating (Fusarium graminearum): 89%
Test I disease control rating [1]: 0%
Test A disease control rating [2]: 74%
Test D disease control rating (Septoria tritici): 0%
Test C disease control rating (Septoria nodorum): 100%
Test B disease control rating [3]: 95%

COCC(C)Nc1nccc(-c2ccnc(Nc3cc(F)ccc3C)c2)n1 (stereo not shown) [Compound 91]
Test F disease control rating (Botrytis cinerea): 98%
Test E disease control rating (Fusarium graminearum): 19%
Test I disease control rating [1]: 0%
Test A disease control rating [2]: 97%
Test D disease control rating (Septoria tritici): 7%
Test C disease control rating (Septoria nodorum): 94%
Test B disease control rating [3]: 99%

COCC(C)Nc1nccc(-c2ccnc(Nc3c(C)ccc(Cl)c3C)c2)n1 (stereo not shown) [Compound 92]
Test F disease control rating (Botrytis cinerea): 99%
Test E disease control rating (Fusarium graminearum): 0%
Test I disease control rating [1]: 0%
Test A disease control rating [2]: 91%
Test D disease control rating (Septoria tritici): 65%
Test C disease control rating (Septoria nodorum): 100%
Test B disease control rating [3]: 94%

COCC(C)Nc1nccc(-c2ccnc(Nc3c(C)cc(Cl)cc3Cl)c2)n1 (stereo not shown) [Compound 93]
Test F disease control rating (Botrytis cinerea): 98%
Test E disease control rating (Fusarium graminearum): 66%
Test I disease control rating [1]: 0%
Test A disease control rating [2]: 84%
Test D disease control rating (Septoria tritici): 78%
Test C disease control rating (Septoria nodorum): 100%
Test B disease control rating [3]: 99%
